Test results as given in the supplement of paper PMC10132981, “Formate overflow drives toxic folate trapping in MTHFD1 inhibited cancer cells” (Nature Metabolism, 2023).
± gives the standard deviation of the averaged measurements.

System: SW620
Experiment: cell viability relative to vehicle (resazurin, 96 h); higher = more viable
Protocol: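 SW620 WT or MTHFD2-/- cells were treated for 96 h with a compound dilution series (log10 M) in RPMI with normal or dialysed FBS. Viability was read by resazurin and is given as % of vehicle.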

CN(Cc1cnc2nc(N)nc(N)c2n1)c1ccc(C(=O)N[C@@H](CCC(=O)O)C(=O)O)cc1 [methotrexate]
Conditions	cell viability [%]
log10 compound concentration (M): -6.90849, supplement / serum: Hypoxanthine + AICAr 100μM, base medium: RPMI + dialysed FBS	6.51 ± 1.3
log10 compound concentration (M): -6.90849, supplement / serum: Hypoxanthine, base medium: RPMI + dialysed FBS	5.78 ± 0.88
log10 compound concentration (M): -6.90849, supplement / serum: RPMI + Dialyzed FBS + 50μM Hypoxanthine, base medium: RPMI-1640	8.66 ± 0.88
log10 compound concentration (M): -6.90849, supplement / serum: RPMI + Dialyzed FBS, base medium: RPMI-1640	5.1 ± 0.99
log10 compound concentration (M): -6.90849, supplement / serum: RPMI + Normal FBS, base medium: RPMI-1640	20.5 ± 3.8
log10 compound concentration (M): -6.90849, supplement / serum: Vehicle, base medium: RPMI + dialysed FBS	4.6 ± 0.73
log10 compound concentration (M): -7.38561, supplement / serum: Hypoxanthine + AICAr 10μM, base medium: RPMI + dialysed FBS	15.3 ± 1.1
log10 compound concentration (M): -7.38561, supplement / serum: Hypoxanthine + AICAr 30μM, base medium: RPMI + dialysed FBS	7.88 ± 2.1
log10 compound concentration (M): -7.38561, supplement / serum: Hypoxanthine + AICAr 50μM, base medium: RPMI + dialysed FBS	10.8 ± 2.8
log10 compound concentration (M): -7.38561, supplement / serum: Hypoxanthine + AICAr 100μM, base medium: RPMI + dialysed FBS	9.102 ± 0.063
log10 compound concentration (M): -7.38561, supplement / serum: Hypoxanthine, base medium: RPMI + dialysed FBS	14.7 ± 1.8
log10 compound concentration (M): -7.38561, supplement / serum: RPMI + Dialyzed FBS + 50μM Hypoxanthine, base medium: RPMI-1640	24.7 ± 5
log10 compound concentration (M): -7.38561, supplement / serum: RPMI + Dialyzed FBS, base medium: RPMI-1640	5.71 ± 1.2
log10 compound concentration (M): -7.38561, supplement / serum: RPMI + Normal FBS, base medium: RPMI-1640	42.8 ± 6.6
log10 compound concentration (M): -7.38561, supplement / serum: Vehicle, base medium: RPMI + dialysed FBS	4.77 ± 1.2
log10 compound concentration (M): -7.86273, supplement / serum: Hypoxanthine + AICAr 10μM, base medium: RPMI + dialysed FBS	103 ± 12
log10 compound concentration (M): -7.86273, supplement / serum: Hypoxanthine + AICAr 30μM, base medium: RPMI + dialysed FBS	75.9 ± 16
log10 compound concentration (M): -7.86273, supplement / serum: Hypoxanthine + AICAr 50μM, base medium: RPMI + dialysed FBS	65.1 ± 3
log10 compound concentration (M): -7.86273, supplement / serum: Hypoxanthine + AICAr 100μM, base medium: RPMI + dialysed FBS	39.1 ± 11
log10 compound concentration (M): -7.86273, supplement / serum: Hypoxanthine, base medium: RPMI + dialysed FBS	92.6 ± 16
log10 compound concentration (M): -7.86273, supplement / serum: RPMI + Dialyzed FBS + 50μM Hypoxanthine, base medium: RPMI-1640	85 ± 1.5
log10 compound concentration (M): -7.86273, supplement / serum: RPMI + Dialyzed FBS, base medium: RPMI-1640	15.5 ± 3.5
log10 compound concentration (M): -7.86273, supplement / serum: RPMI + Normal FBS, base medium: RPMI-1640	53.8 ± 9.3
log10 compound concentration (M): -7.86273, supplement / serum: Vehicle, base medium: RPMI + dialysed FBS	10.7 ± 0.97
log10 compound concentration (M): -8.33985, supplement / serum: Hypoxanthine + AICAr 10μM, base medium: RPMI + dialysed FBS	117 ± 7.8
log10 compound concentration (M): -8.33985, supplement / serum: Hypoxanthine + AICAr 30μM, base medium: RPMI + dialysed FBS	93.6 ± 14
log10 compound concentration (M): -8.33985, supplement / serum: Hypoxanthine + AICAr 50μM, base medium: RPMI + dialysed FBS	119.7 ± 1
log10 compound concentration (M): -8.33985, supplement / serum: Hypoxanthine + AICAr 100μM, base medium: RPMI + dialysed FBS	92.9 ± 8.4
log10 compound concentration (M): -8.33985, supplement / serum: Hypoxanthine, base medium: RPMI + dialysed FBS	99.3 ± 9
log10 compound concentration (M): -8.33985, supplement / serum: RPMI + Dialyzed FBS + 50μM Hypoxanthine, base medium: RPMI-1640	99.18 ± 0.23
log10 compound concentration (M): -8.33985, supplement / serum: RPMI + Dialyzed FBS, base medium: RPMI-1640	72.4 ± 12
log10 compound concentration (M): -8.33985, supplement / serum: RPMI + Normal FBS, base medium: RPMI-1640	95.4 ± 29
log10 compound concentration (M): -8.33985, supplement / serum: Vehicle, base medium: RPMI + dialysed FBS	109 ± 8.1
log10 compound concentration (M): -8.81697, supplement / serum: Hypoxanthine + AICAr 10μM, base medium: RPMI + dialysed FBS	117 ± 3
log10 compound concentration (M): -8.81697, supplement / serum: Hypoxanthine + AICAr 30μM, base medium: RPMI + dialysed FBS	98.4 ± 1.9
log10 compound concentration (M): -8.81697, supplement / serum: Hypoxanthine + AICAr 50μM, base medium: RPMI + dialysed FBS	108 ± 4.7
log10 compound concentration (M): -8.81697, supplement / serum: Hypoxanthine + AICAr 100μM, base medium: RPMI + dialysed FBS	90.3 ± 4.8
log10 compound concentration (M): -8.81697, supplement / serum: Hypoxanthine, base medium: RPMI + dialysed FBS	100 ± 13
log10 compound concentration (M): -8.81697, supplement / serum: RPMI + Dialyzed FBS + 50μM Hypoxanthine, base medium: RPMI-1640	102 ± 6.8
